The values that follow come from patent US20230000842A1, “METHODS OF TREATING CARTILAGE DISORDERS THROUGH INHIBITION OF CLK AND DYRK” (SAMUMED, LLC, priority 2019, published 2023).

Assay [1] concerns the target CLK2 kinase (Homo sapiens, UniProt P49760). Put plainly: CLK2 kinase activity assay (Z-lyte FRET).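 Also: FRET read-out as coumarin to fluorescein emission ratio, unphosphorylated peptide as 0% and phosphorylated peptide as 100% controls, duplicate reactions, non-linear regression fit of dose-response curves.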 It counts as biochemical. The note with it: Z-lyte Ser/Thr 6 peptide, 60 μM ATP, 1 h at room temperature.
In assay [2] the test system is Wnt pathway activity (SW480 colon carcinoma cells stably expressing the Sp5-Luc reporter). Put plainly: Wnt pathway activity screening assay (Sp5-Luc reporter gene assay). The note with it: Homo sapiens, SW480, Table 4; SW480 cells stably expressing Sp5-Luc reporter, 10-point dose-response from 10 μM, 36 to 48 hours. On the technique in general: A reporter such as luciferase makes a cellular process visible.

Assay [3] concerns primary human mesenchymal stem cells (hMSCs). Put plainly: Chondrogenesis screening using primary human mesenchymal stem cells. The note with it: Homo sapiens, Mesenchymal stem cells, hMSC chondrogenesis; for Emax: maximum activity relative to TGF-β3 (10 ng/mL) positive control, read-out: Max. Activity as % TGF-β3 activity; for EC50: concentration required to induce 50% levels of chondrogenesis with TGF-β3 as positive control, read-out: Conc (nM) of 50% TGF-β3 activity. It counts as cell-based. Summed up: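 Derived values are EC50 for 50% chondrogenesis, maximal activity and the dose giving it. These come from nodule area in passage 3–6 primary hMSCs, expressed as fold change over the mean of 3 same-plate DMSO wells, 2–3 replicates per concentration. TGF-β3 served as positive control.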

For assay [4], the target named is CLK3 kinase (Homo sapiens, UniProt P49761). Put plainly: CLK3 kinase activity assay (Z-lyte FRET).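 Also: kinase activity read as coumarin/fluorescein emission ratio by FRET, unphosphorylated peptide as 0% and phosphorylated peptide as 100% control, values from non-linear regression of dose-response curves.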 The note with it: Z-lyte Ser/Thr 18 peptide, 156 μM ATP, 1 h at room temperature. It counts as biochemical.
CLK3 kinase, sequence (P49761 whole entry): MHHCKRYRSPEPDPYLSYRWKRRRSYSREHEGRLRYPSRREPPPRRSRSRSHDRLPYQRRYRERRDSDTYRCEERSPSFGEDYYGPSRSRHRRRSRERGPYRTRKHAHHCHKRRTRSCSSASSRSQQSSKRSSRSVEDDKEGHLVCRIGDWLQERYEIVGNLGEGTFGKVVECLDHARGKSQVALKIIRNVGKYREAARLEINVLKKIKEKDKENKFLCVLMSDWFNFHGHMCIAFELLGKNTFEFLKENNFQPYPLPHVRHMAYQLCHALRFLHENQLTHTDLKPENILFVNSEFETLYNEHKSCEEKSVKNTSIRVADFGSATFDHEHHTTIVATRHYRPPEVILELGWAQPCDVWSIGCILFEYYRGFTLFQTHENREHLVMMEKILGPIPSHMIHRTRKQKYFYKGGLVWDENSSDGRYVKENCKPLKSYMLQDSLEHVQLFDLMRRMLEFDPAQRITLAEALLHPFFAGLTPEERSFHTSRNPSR

CLK2 kinase, sequence (P49760 whole entry): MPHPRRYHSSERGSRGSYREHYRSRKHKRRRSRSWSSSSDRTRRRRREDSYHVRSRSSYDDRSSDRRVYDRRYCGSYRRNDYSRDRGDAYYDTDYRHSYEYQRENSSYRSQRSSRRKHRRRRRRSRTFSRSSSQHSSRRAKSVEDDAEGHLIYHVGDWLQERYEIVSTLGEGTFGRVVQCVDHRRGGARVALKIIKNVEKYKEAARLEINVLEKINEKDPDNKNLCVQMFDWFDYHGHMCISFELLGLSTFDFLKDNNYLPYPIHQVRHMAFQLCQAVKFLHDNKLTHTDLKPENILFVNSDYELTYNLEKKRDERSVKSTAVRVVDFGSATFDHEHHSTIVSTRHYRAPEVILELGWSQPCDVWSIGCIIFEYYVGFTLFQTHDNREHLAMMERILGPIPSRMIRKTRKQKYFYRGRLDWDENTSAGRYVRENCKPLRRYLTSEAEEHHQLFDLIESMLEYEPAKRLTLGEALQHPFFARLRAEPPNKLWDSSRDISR

As to `CC(C)C(=O)Nc1cncc(-c2ccc3[nH]nc(-c4cc5c(N6CCN(C)CC6)nccc5[nH]4)c3c2)c1` [compound 475], the figures for the EC50 in assay [1], in assay [2] and in assay [4] were 11 nM, 7690 nM and 569 nM, respectively. For the same molecule, in assay [3], the Emax was found to be 21%.
With `CC(C)(C)C(=O)Nc1cncc(-c2cnc3[nH]nc(-c4nc5c(-c6ccoc6)cncc5[nH]4)c3c2)c1` [compound 232], the EC50 came out at 5 nM in assay [1], 70 nM in assay [2], 30 nM in assay [3] and 143 nM in assay [4]. In addition, the Emax in assay [3] worked out at 144%.
The like results for `CC(C)C(=O)Nc1cncc(-c2cc3c(-c4cc5c(-c6cccnc6)cccc5[nH]4)n[nH]c3cn2)c1` [compound 350] were, in that order, 11 nM, 275 nM, 10 nM, 1900 nM and 201%.
Take `CCC(=O)Nc1cncc(-c2ccc3[nH]nc(-c4cc5c(-c6cccc(F)c6)ccnc5[nH]4)c3c2)c1` [compound 304]: the EC50 came out at 16 nM in assay [1], 13.2 nM in assay [2] and 21 nM in assay [4]. For the same molecule, the Emax in assay [3] stood at 167%.
The like results for `Nc1cncc(-c2ccc3[nH]nc(-c4cc5c(N6CCCCC6)ccnc5[nH]4)c3c2)c1` [compound 455] were, in that order, 5 nM, 604 nM, 110 nM and 130%.
As for `CCC(=O)Nc1cncc(-c2cnc3[nH]nc(-c4nc5c(-c6ccsc6)cccc5[nH]4)c3c2)c1` [compound 243], the EC50 turned out to be 5 nM in assay [1], 10 nM in assay [2], 100 nM in assay [3] and 62 nM in assay [4]. The Emax in assay [3] amounted to 167%.
The like results for `Nc1cncc(-c2cc3c(-c4cc5c(N6CCCCC6)cncc5[nH]4)n[nH]c3cn2)c1` [compound 456] were, in that order, 2 nM, 2960 nM, 30 nM, 94 nM and 93.5%.
Take `CC(C)(C)C(=O)Nc1cncc(-c2cc3c(-c4cc5c(-c6ccncc6)cncc5[nH]4)n[nH]c3cn2)c1` [compound 392]: the EC50 in assay [1] was 9 nM; in assay [2], greater than 10000 nM; in assay [4], 92 nM. The Emax in assay [3] turned out to be 30.4%.
Consider `O=C(Nc1nc2c(-c3cccc(F)c3)cncc2[nH]1)c1n[nH]c2ccc(-c3cccnc3)cc12` [compound 119], for which the EC50 in assay [1] is 5 nM; in assay [2], 6 nM; in assay [3], 100 nM; in assay [4], 48 nM. Further, the Emax in assay [3] came out at 157%.
Turning to `O=C(Nc1cncc(-c2cnc3[nH]nc(-c4nc5c(-c6cccc(F)c6)cncc5[nH]4)c3c2)c1)N1CCOCC1` [compound 127], the EC50 worked out at 6 nM in assay [1], 9 nM in assay [2] and 42 nM in assay [4]. Besides, the Emax in assay [3] stood at 96.8%.
Regarding `FC1(F)CCN(Cc2cncc(-c3ccc4[nH]nc(-c5cc6cnccc6[nH]5)c4n3)c2)C1` [compound 446], the EC50 in assay [1] worked out at 1 nM; in assay [2], 45 nM; in assay [3], 300 nM; in assay [4], 23 nM. Also, the Emax in assay [3] is 134%.
As to `FC1(F)CCN(Cc2cncc(-c3ccc4[nH]nc(-c5nc6c(N7CCCCC7)cncc6[nH]5)c4c3)c2)C1` [compound 211], the values for the EC50 in assay [1], in assay [2] and in assay [4] were 8 nM, 20 nM and 107 nM, respectively. Further, in assay [3], the Emax was determined as 80.1%.
The matching figures for `CC(C)C(=O)Nc1cncc(-c2cc3c(-c4cc5c(-c6ccncc6)nccc5[nH]4)n[nH]c3cn2)c1` [compound 385]: 12 nM, greater than 10000 nM, 389 nM and 32.1%.
The like results for `CN1CCN(c2nccc3[nH]c(-c4n[nH]c5ccc(-c6cncc(NC(=O)c7ccccc7)c6)cc45)cc23)CC1` [compound 486] were, in that order, 6 nM, 2140 nM, 291 nM and 34.6%.
The like results for `Nc1cncc(-c2cc3c(-c4cc5c(-c6ccccc6F)cncc5[nH]4)n[nH]c3cn2)c1` [compound 324] were, in that order, 6 nM, 1630 nM, 205 nM and 15.5%.
For `Cc1cn(-c2ccnc3[nH]c(-c4n[nH]c5ccc(-c6cncc(NC(=O)C(C)(C)C)c6)nc45)nc23)cn1` [compound 223], the EC50 in assay [1] is 3 nM; in assay [2] it was greater than 10000 nM; in assay [3], 10 nM; in assay [4], 123 nM. In addition, the Emax in assay [3] came out at 70.2%.
The like results for `CN1CCN(c2cncc3[nH]c(-c4n[nH]c5ccc(-c6cncc(N)c6)nc45)nc23)CC1` [compound 215] were, in that order, 5 nM, greater than 10000 nM, 30 nM, 500 nM and 64.6%.
In the case of `CC(C)CC(=O)Nc1cncc(-c2ccc3[nH]nc(-c4nc5c(-c6cccc(F)c6)ccnc5[nH]4)c3c2)c1` [compound 124], the EC50 turned out to be 37 nM in assay [1], 1.4 nM in assay [2] and 218 nM in assay [4]. In assay [3], the Emax is 61%.
As to `Fc1ccccc1-c1nccc2[nH]c(-c3n[nH]c4cnc(-c5cn[nH]c5)cc34)cc12` [compound 340], the EC50 in assay [1] came to 10 nM; in assay [2], 30.5 nM; in assay [3], 10 nM; in assay [4], 785 nM. Besides, the Emax in assay [3] amounted to 89.2%.
In the case of `CCCC(=O)Nc1cncc(-c2cnc3[nH]nc(-c4cc5c(-c6cc(F)cc(CNS(C)(=O)=O)c6)cncc5[nH]4)c3c2)c1` [compound 518], the EC50 in assay [1] was determined as 7 nM; in assay [2], 1680 nM; in assay [4], 39 nM. Moreover, the Emax in assay [3] is 36.7%.
In the case of `CC(C)Nc1cncc(-c2ccc3[nH]nc(-c4nc5c(-c6ccoc6)nccc5[nH]4)c3c2)c1` [compound 236], the EC50 in assay [1] came out at 19 nM; in assay [2] it was 43.5 nM; in assay [3] it was 30 nM; in assay [4], 205 nM. In addition, the Emax in assay [3] was 90.2%.
The matching figures for `CS(=O)(=O)NCc1cc(F)cc(-c2nccc3[nH]c(-c4n[nH]c5cnc(-c6cncc(CNCC7CCCC7)c6)cc45)cc23)c1` [compound 534]: 4 nM, greater than 10000 nM, 30 nM, 471 nM and 52.3%.
The like results for `Cc1ccc(-c2cncc3[nH]c(-c4n[nH]c5cnc(-c6cncc(NC(=O)C7CCC7)c6)cc45)nc23)s1` [compound 277] were, in that order, 6 nM, 10.1 nM, 100 nM, 29 nM and 231%.
The like results for `O=C(Nc1cncc(-c2cnc3[nH]nc(-c4nc5c(-c6cccc(F)c6)cncc5[nH]4)c3c2)c1)C1CC1` [compound 126] were, in that order, 12 nM, 11 nM, 10 nM, 7330 nM and 148%.
In the case of `COc1cncc(-c2cc3c(-c4nc5c(-c6cccc(F)c6)cncc5[nH]4)n[nH]c3cn2)c1` [compound 147], the EC50 in assay [1] stood at 9 nM; in assay [2], 31.3 nM; in assay [3], 300 nM; in assay [4], 493 nM. The Emax in assay [3] stood at 140%.
For the molecule `Nc1cncc(-c2ccc3[nH]nc(-c4cc5c(-c6ccncc6)nccc5[nH]4)c3c2)c1` [compound 377], the EC50 in assay [1] was 7 nM; in assay [2], 658 nM; in assay [4], 113 nM. In addition, the Emax in assay [3] is 76.8%.
For the molecule `CC(C)CC(=O)Nc1cncc(-c2cnc3[nH]nc(-c4cc5c(-c6ccncc6)cccc5[nH]4)c3c2)c1` [compound 389], the EC50 is 9 nM in assay [1], 711 nM in assay [2], 30 nM in assay [3] and 9910 nM in assay [4]. The Emax in assay [3] was 71.4%.
The matching figures for `CCNCc1cncc(-c2ccc3[nH]nc(-c4nc5c(-c6cc(F)cc(NCCN(C)C)c6)ccnc5[nH]4)c3n2)c1` [compound 286]: 3 nM, greater than 10000 nM, 20.6 nM, 82 nM and 149%.
The like results for `CC(C)Oc1ccc(NC(=O)c2n[nH]c3ccc(-c4cncc(CN5CCCCC5)c4)cc23)cn1` [compound 82] were, in that order, 13 nM, 41 nM, 10 nM, 616 nM and 51.9%.
The matching figures for `COc1ccc(NC(=O)c2n[nH]c3ccc(-c4cncc(CN5CCC(F)(F)C5)c4)cc23)cn1` [compound 72]: 2 nM, 5 nM, 100 nM, 22 nM and 72.2%.
Consider `c1cc2[nH]c(-c3n[nH]c4ccc(-c5cncc(CN6CCCCC6)c5)cc34)cc2cn1` [compound 448], for which the EC50 in assay [1] is 3 nM; in assay [2], 685 nM; in assay [4], 28 nM. The Emax in assay [3] is 122%.
